Results from paper PMC6271551 (2014).

Tested on: F21T (DNA, G4) GGGTTAGGGTTAGGGTTAGGG
Experiment: FRET melting
Settings: 0.1 M KCl, 10 mM sodium cacodylate pH 7.2, 0.25 µM DNA

| ΔTm (50 µM compound) | ΔTm (120 µM compound, authors: almost no interaction) | Compound |
| --- | --- | --- |
| ~ 15.5 °C |  | COc1ccc2cc3[n+](cc2c1OC)CCc1cc2c(cc1-3)OCO2 |
|  | ~ 5 °C | COc1ccc(Cc2nccc3cc(OC)c(OC)cc23)cc1OC |
